Measured values: the supplement of paper PMC10011410
± gives the standard deviation of the averaged measurements.

How the values were obtained:
U-2 OS [1] = experiment: cell painting activity score (Mahalanobis distance from DMSO wells); higher = stronger morphological phenotype; conditions: 24 h
Method: (§1)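 Cell painting in U-2 OS cells (384-well, about 1,500 cells per well), compound exposure 24 h, usually six 2-fold concentrations from 20 to 0.625 uM (some compounds higher or lower). Relative cell count is the cell number per well relative to DMSO wells. Activity score is the Mahalanobis distance of the morphological profile from DMSO control wells. Mean of four technical replicate plates.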

U-2 OS [2] = experiment: relative cell count vs DMSO (cell painting) (fraction of DMSO control); higher = more cells remaining (less cytotoxic); conditions: 24 h
Method: as §1

U-2 OS [3] = experiment: AUC of culture confluence over time (live-cell imaging) (AUC (confluence % x time)); higher = more confluent culture (less growth inhibition)
Method: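 Live-cell Incucyte imaging of U-2 OS cells in F-12K medium. Compounds were tested mostly at 5, 10 and 20 uM, and cells were imaged every 4 h for up to 60 h. Value is the area under the curve of phase-contrast confluence over time.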

SMILES | cell painting activity score (U-2 OS [1]; 0.625 µM) | cell painting activity score (U-2 OS [1]; 1.25 µM) | cell painting activity score (U-2 OS [1]; 2.5 µM) | cell painting activity score (U-2 OS [1]; 5 µM) | cell painting activity score (U-2 OS [1]; 10 µM) | cell painting activity score (U-2 OS [1]; 20 µM) | relative cell count (U-2 OS [2]; 0.625 µM) | relative cell count (U-2 OS [2]; 1.25 µM) | relative cell count (U-2 OS [2]; 2.5 µM) | relative cell count (U-2 OS [2]; 5 µM) | relative cell count (U-2 OS [2]; 10 µM) | relative cell count (U-2 OS [2]; 20 µM) | AUC of culture confluence over time (U-2 OS [3]; 5 µM) | AUC of culture confluence over time (U-2 OS [3]; 10 µM) | AUC of culture confluence over time (U-2 OS [3]; 20 µM) | cell painting activity score (U-2 OS [1]; 0.019532 µM) | cell painting activity score (U-2 OS [1]; 0.07812 µM) | cell painting activity score (U-2 OS [1]; 0.3124 µM) | relative cell count (U-2 OS [2]; 0.019532 µM) | relative cell count (U-2 OS [2]; 0.07812 µM) | relative cell count (U-2 OS [2]; 0.3124 µM) | AUC of culture confluence over time (U-2 OS [3]; 1.25 µM)
CC(C)[C@H]1OC(=O)[C@H](Cc2ccccc2)N(C)C(=O)[C@@H](C(C)C)OC(=O)[C@H](Cc2ccccc2)N(C)C(=O)[C@@H](C(C)C)OC(=O)[C@H](Cc2ccccc2)N(C)C1=O | 3.92 | 4.9 | 9.63 | 14.2 | 15.5 | 34.1 | 0.976 | 0.957 | 0.981 | 0.73 | 0.439 | 0.0218 | 19.7 | 28.9 | 11.6 |  |  |  |  |  |  | 
CC(C)(C)C(=O)OCOc1cccc2ccccc12 | 4.69 | 4.3 | 6.34 | 5.83 | 8.37 | 7.3 | 1.01 | 0.983 | 0.997 | 0.97 | 0.974 | 1.01 | 45.5 | 44.2 | 46.3 |  |  |  |  |  |  | 
CS(=O)(=O)OCCCCOS(C)(=O)=O | 3.32 | 4.51 | 5.59 | 7.16 | 6.02 | 10 | 0.959 | 0.863 | 0.85 | 0.682 | 0.679 | 0.295 | 49.5 | 47.2 | 49.5 |  |  |  |  |  |  | 
O=c1c(O)c(-c2ccc(O)c(O)c2)oc2cc(O)cc(O)c12 | 4.42 | 3.56 | 5.15 | 6.18 | 8.67 | 12.4 | 0.954 | 0.982 | 0.939 | 0.962 | 0.892 | 0.814 | 46.5 | 53.6 | 50.6 |  |  |  |  |  |  | 
C=C1[C@@H](C)[C@H]2[C@H](Cc3ccccc3)NC(=O)[C@]23OC(=O)/C=C/[C@H](O)CCC[C@@H](C)C/C=C/[C@H]3[C@@H]1O | 9.61 | 11.2 | 9.71 | 10.7 | 12 | 16.1 | 0.968 | 0.954 | 0.865 | 0.715 | 0.722 | 0.667 | 29 | 26.1 | 26.1 |  |  |  |  |  |  | 
CNC(=O)c1cc(Oc2ccc(NC(=O)Nc3ccc(Cl)c(C(F)(F)F)c3)cc2)ccn1 | 10.7 | 11.4 | 10.3 | 12.4 | 9.94 | 10.5 | 1.02 | 0.956 | 0.971 | 0.978 | 0.705 | 0.348 | 50.1 | 29.6 | 15.6 |  |  |  |  |  |  | 
C=C(C)[C@H]1Cc2c(ccc3c2O[C@@H]2COc4cc(OC)c(OC)cc4[C@@H]2C3=O)O1 | 10.4 | 11.4 | 15.6 | 15.6 | 15.4 | 15.4 | 0.719 | 0.643 | 0.485 | 0.349 | 0.311 | 0.332 | 15 | 17.9 | 21.1 |  |  |  |  |  |  | 
C[C@]12O[C@H](C[C@]1(O)CO)n1c3ccccc3c3c4c(c5c6ccccc6n2c5c31)CNC4=O | 20.6 | 21.4 | 22.3 | 23.1 | 23.1 | 22.8 | 0.654 | 0.525 | 0.521 | 0.516 | 0.453 | 0.138 | 25.9 | 23.6 | 23.8 |  |  |  |  |  |  | 
CC(=O)N[C@@H](CCCCNC(=O)CSCCNC(=O)CCNC(=O)[C@H](O)C(C)(C)COP(=O)(O)OP(=O)(O)OC[C@H]1O[C@@H](n2cnc3c(N)ncnc32)[C@H](O)[C@@H]1OP(=O)(O)O)C(N)=O.O=C(O)C(F)(F)F | 3.32 | 5.02 | 3.77 | 3.73 | 4.57 | 4.45 | 0.896 | 0.879 | 0.923 | 0.883 | 0.875 | 0.903 | 44.2 | 44.8 | 42.4 |  |  |  |  |  |  | 
CC[C@@]1(O)C(=O)OCc2c1cc1n(c2=O)Cc2cc3ccccc3nc2-1 |  | 12.4 ± 0.52 |  | 13.7 ± 0.32 |  | 15.5 ± 0.56 |  | 0.476 ± 0.059 |  | 0.379 ± 0.037 |  | 0.351 ± 0.028 | 19.7 |  | 21.5 | 7.71 ± 3.2 | 9.83 ± 1.2 | 10.3 ± 0.47 | 0.694 ± 0.18 | 0.516 ± 0.026 | 0.503 ± 0.036 | 19.5
CC(C)(C)C(=O)OCOc1cccc2c1C(=O)C1C3C=CC(CC3)C1C2=O (stereo not given) | 5.7 | 6.22 | 7.75 | 8.44 | 12.8 | 13.5 | 0.973 | 0.963 | 0.986 | 0.929 | 0.787 | 0.554 | 37.6 | 26.3 | 20 |  |  |  |  |  |  | 
N[C@@H](Cc1ccc(N(CCCl)CCCl)cc1)C(=O)O | 3.56 | 5.26 | 5.71 | 6.03 | 8.71 | 9.32 | 0.959 | 0.939 | 0.879 | 0.883 | 0.733 | 0.723 | 34.2 | 33.1 | 30.4 |  |  |  |  |  |  | 
O=C(O)C1=CC(=C(c2ccc(O)c(C(=O)O)c2)c2ccc(O)c(C(=O)O)c2)C=CC1=O | 3.58 | 3.35 | 3.92 | 4.33 | 5.68 | 5.78 | 0.992 | 0.98 | 0.986 | 0.968 | 0.965 | 0.954 | 54.3 | 48.2 | 54 |  |  |  |  |  |  | 
Cn1ncnc2c(=O)n(C)c(=O)nc1-2 | 14.5 | 14 | 15.7 | 30 | 30.1 | 29 | 0.575 | 0.386 | 0.0951 | 0.0345 | 0.021 | 0.0323 | 16.9 | 16.5 | 14.2 |  |  |  |  |  |  | 
O=C(O)CCCc1ccc(N(CCCl)CCCl)cc1 | 4.38 | 5.9 | 8 | 10.4 | 10.8 | 12.6 | 0.967 | 0.951 | 0.908 | 0.881 | 0.837 | 0.784 | 50.2 | 44.6 | 36.8 |  |  |  |  |  |  | 
CN1C(=O)[C@]23CC4=CC=C[C@H](O)[C@H]4N2C(=O)[C@@]1(CO)SS3 | 17.6 | 31.2 | 35.5 | 29.6 | 26.9 | 36.5 | 0.197 | 0.0207 | 0.0068 | 0.0047 | 0.00462 | 0.00499 | 7.79 | 7.52 | 8.46 |  |  |  |  |  |  | 
CN1CCN(CCOc2cc(OC3CCOCC3)c3c(Nc4c(Cl)ccc5c4OCO5)ncnc3c2)CC1 | 8.87 | 8.9 | 9.68 | 9.8 | 10.5 | 11.3 | 0.997 | 0.953 | 0.993 | 0.997 | 0.991 | 0.933 | 39.5 | 33.5 | 34.5 |  |  |  |  |  |  | 
CC[C@@H]1/C=C/C=C/C[C@H](C)[C@@H](O)[C@](C)(O)C(=O)[C@H](C)[C@@H](O)[C@H](C)C(=O)[C@H](C)[C@@H](O)[C@H](C)/C=C/C(=O)O[C@H]2[C@@H](C)[C@@H](CC1)O[C@@]1(CC[C@@H](C)[C@@H](C[C@H](C)O)O1)[C@@H]2C | 14.7 | 14.7 | 14.5 | 13.4 | 13.8 | 15 | 0.797 | 0.815 | 0.83 | 0.833 | 0.872 | 0.697 | 28.5 | 29.6 | 17.4 |  |  |  |  |  |  | 
C[C@H]1O[C@@H](O[C@H]2CC[C@@]3(C)[C@@H](CC[C@]4(C)[C@@H]3C=C[C@]35OC[C@@]6(CCC(C)(C)C[C@H]63)[C@@H](O)C[C@]54C)[C@]2(C)CO)[C@H](O)[C@@H](O[C@@H]2O[C@H](CO)[C@@H](O)[C@H](O)[C@H]2O)[C@H]1O | 5.15 | 6.79 | 10.6 | 9.69 | 27.5 | 29.4 | 0.96 | 0.765 | 0.155 | 0.3 | 0.0734 | 0.0918 | 35.7 | 16.7 | 15.5 |  |  |  |  |  |  | 
Cc1cnc(CNC(=O)c2c(=O)c3ccc(N4CCCN(C)CC4)nc3n3c2sc2ccccc23)cn1 | 9.34 | 10.9 | 10.3 | 10.4 | 11.4 | 11 | 0.709 | 0.607 | 0.591 | 0.572 | 0.559 | 0.548 | 33.9 | 34.5 | 35 |  |  |  |  |  |  | 
